Where a SMILES comes first, the peptide text is derived from it. Where no end group is shown, it is not given here. [ ]: non-standard residue; d: D form. Orn = NCCC[C@H](N)C(=O)O
Legend:
E. faecalis WW6 [1] = assay type: cell-based, Enterococcus faecalis; settings: WW6
Procedure: (§5) MBC was determined directly after the MIC evaluation. The 10 µl samples of all 8 dilution rows in the microtiter plates were spotted on square Mueller-Hinton agar plates and incubated overnight at 37 °C and 5% CO2. The MBC was determined as the concentration at which no bacterial colonies were obtained on the two parallel spotted plates.

S. aureus MRSA3 = assay type: cell-based, Staphylococcus aureus; settings: MRSA3
Procedure: as §5

physchem = assay: physchem
Procedure: (§1) HPLC was performed on an Agilent 1100 system with an ultraviolet diode array detector. […] Binding measurements were performed using Regis Technologies IAM.PC.DD2 (100 × 4.6 mm), HiChrom Chiralpak-HSA (50 × 3 mm) and HiChrom Chiralpak-AGP (50 × 3 mm) columns. […] Retention times were converted to log k and % binding, using calibration routines described in[72].

S. aureus MRSA9 SCV = settings: Mueller-Hinton broth, 22 h + 2 h resazurin, 37 °C, 5% CO2, three parallels
Procedure: (§2) For the determination of MIC, the standard broth microdilution procedure[45] was used with a slight modification. Since the peptide stock solutions were prepared in 50% ethanol, the first rows of the 96-well microtiter plates were filled with 50 µl of 2 × concentrated Mueller-Hinton broth to reestablish the normal broth concentration after the addition of 50 µl peptide solutions. The MIC was determined as the lowest concentration that inhibited bacterial growth, judging from bacterial respiration in three parallels for each antibiotic. After incubation of the plates for 22 hours, the redox indicator resazurin (Sigma-Aldrich) was added to the wells (20 µl, 80 µM). The plates were incubated another 2 hours at 37 °C and 5% CO2. Respiration was determined as the difference in the absorption at 570 nm to 600 nm, using a microplate reader FLASHScan 550 (Analytik Jena).

S. aureus MRSA538 SCV = settings: Mueller-Hinton broth, 22 h + 2 h resazurin, 37 °C, 5% CO2, three parallels
Procedure: as §2

S. aureus MRSA8 SCV [2] = settings: Mueller-Hinton broth, 22 h + 2 h resazurin, 37 °C, 5% CO2, three parallels
Procedure: as §2

[3] = system: α1-acid glycoprotein (AGP); assay: AGP binding, biomimetic chromatography
Procedure: as §1

E. faecalis WW4 = assay type: cell-based, Enterococcus faecalis; settings: WW4
Procedure: as §5

enterococci = assay type: cell-based, Enterococcus faecalis, Enterococcus faecium; settings: 22 h
S. aureus DSM 1104 SCV [4] = assay type: cell-based, Staphylococcus aureus; settings: value in parentheses
Procedure: (§3) This parameter quantifies the ability of the peptides to prevent biofilm outgrowth.
(§4) After co-incubation with peptides at 37 °C and 5% CO2 without agitation for 24 hours, the planktonic cells were washed, and Crystal violet staining was applied.

S. aureus DSM 1104 [5] = assay type: cell-based, Staphylococcus aureus; settings: DSM 1104
Procedure: as §5

S. aureus DSM 1104 SCV [6] = assay type: cell-based, Staphylococcus aureus; settings: for MIC: S. aureus DSM 1104 SCV, Mueller-Hinton broth, 22 h + 2 h resazurin, 37 °C, 5% CO2, three parallels
Procedure: For the determination of MIC, the standard broth microdilution procedure[45] was used with a slight modification[29]. Since the peptide stock solutions were prepared in 50% ethanol, the first rows of the 96-well microtiter plates were filled with 50 µl of 2 × concentrated Mueller-Hinton broth to reestablish the normal broth concentration after the addition of 50 µl peptide solutions. The MIC was determined as the lowest concentration that inhibited bacterial growth, judging from bacterial respiration in three parallels for each antibiotic. After incubation of the plates for 22 hours, the redox indicator resazurin (Sigma-Aldrich) was added to the wells (20 µl, 80 µM). The plates were incubated another 2 hours at 37 °C and 5% CO2. Respiration was determined as the difference in the absorption at 570 nm to 600 nm, using a microplate reader FLASHScan 550 (Analytik Jena).

S. aureus DSM 1104 [7] = settings: DSM 1104, 24 h
Procedure: as §3, §4

E. faecalis WW6 [8] = settings: WW6, 24 h
Procedure: as §3, §4

E. faecalis TRE2 [9] = settings: TRE2, 24 h
Procedure: as §3, §4

S. aureus MRSA8 SCV [10] = settings: value in parentheses
Procedure: as §3, §4

E. faecalis DSM 2570 [11] = settings: DSM 2570, 24 h
Procedure: as §3, §4

E. faecalis TRE4 = assay type: cell-based, Enterococcus faecalis; settings: TRE4
Procedure: as §5

E. faecium VRE1 = assay type: cell-based, Enterococcus faecium; settings: VRE1
Procedure: as §5

E. faecium VRE2 = assay type: cell-based, Enterococcus faecium; settings: VRE2
Procedure: as §5

S. aureus MRSA4 = assay type: cell-based, Staphylococcus aureus; settings: MRSA4
Procedure: as §5

human erythrocytes = assay: Haemolysis assay; assay type: cell-based; settings: red cells of human
Procedure: Haemolytic activity was determined with a serial 2-fold dilution assay. Citrate phosphate dextrose-stabilized human erythrocyte suspensions were obtained from Karlsruhe Municipal Hospital. […] The mixture was pelleted (13 000 rpm, 10 min, 4 °C), and the absorbance of the supernatant was recorded at 540 nm vs. reaction buffer. The extent of haemolysis was related to the action of 0.1% Triton X-100 (100%).

Danio rerio embryos = assay: Acute toxicity in Danio rerio embryos; assay type: in vivo; settings: zebrafish embryos 72 hpf, E3 medium, heart beat; for 1h LD50: 1 hour exposure; for 3h LD50: 3 hours exposure
Procedure: Experiments were performed in accordance with the relevant OECD testing guidelines[73] and German animal protection standards. Wild type D. rerio embryos were obtained at the European Zebrafish Resource Center (Karlsruhe). Fertilized eggs (6 hpf) were raised in 4 ml of embryonic medium (E3) at 28 °C until 72 hpf (6-well plate, 20 eggs/well). Embryos were transferred into flat-bottom glass vials (E3, 1 ml, 15–20 embryos/vial). Peptides were added as 20 µl aliquots in 10% dimethyl sulfoxide in serial 2-fold dilutions. Toxicity was expressed as the concentration at which 50% of the embryos were visually observed to die (measured at 1 and 3 hours exposure) by identifying the heart beat.

S. aureus MRSA9 = assay type: cell-based, Staphylococcus aureus; settings: MRSA9
Procedure: as §5

E. faecalis TRE1 = assay type: cell-based, Enterococcus faecalis; settings: TRE1
Procedure: as §5

E. faecalis DSM 2570 [12] = assay type: cell-based, Enterococcus faecalis; settings: DSM 2570
Procedure: as §5

subtilisin = settings: serine protease isolated from B. subtilis; cited from earlier work
From the text: This intrinsic cell-uptake activity has already been explored in eukaryotic cells to specifically target mitochondria with GS derivatives. In the context of prokaryotic cells, together with the ability to bind certain nucleotides and small phosphorylated molecules[29]–[33], GS thus seems to be capable ...

[13] = target: human serum albumin (HSA) (Homo sapiens, UniProt P02768); assay: HSA binding, biomimetic chromatography
Sequence of human serum albumin (HSA) (P02768 25-609): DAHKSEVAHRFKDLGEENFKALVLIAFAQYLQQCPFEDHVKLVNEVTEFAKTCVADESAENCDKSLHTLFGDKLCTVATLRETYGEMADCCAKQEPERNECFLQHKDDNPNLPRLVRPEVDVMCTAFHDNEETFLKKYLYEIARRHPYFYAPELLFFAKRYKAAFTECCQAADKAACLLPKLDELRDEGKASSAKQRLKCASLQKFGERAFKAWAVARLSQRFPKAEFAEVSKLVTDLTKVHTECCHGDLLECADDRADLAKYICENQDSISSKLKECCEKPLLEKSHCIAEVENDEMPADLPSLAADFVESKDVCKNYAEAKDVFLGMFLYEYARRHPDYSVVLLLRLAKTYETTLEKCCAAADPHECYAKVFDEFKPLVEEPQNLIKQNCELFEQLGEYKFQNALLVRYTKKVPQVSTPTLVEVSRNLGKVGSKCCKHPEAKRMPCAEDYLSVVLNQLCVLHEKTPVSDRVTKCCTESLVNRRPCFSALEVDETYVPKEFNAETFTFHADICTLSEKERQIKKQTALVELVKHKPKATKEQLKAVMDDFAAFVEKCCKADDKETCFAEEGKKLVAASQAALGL
Procedure: as §1

E. faecalis TRE2 [14] = assay type: cell-based, Enterococcus faecalis; settings: TRE2
Procedure: as §5

S. aureus DSM 1104 SCV [15] = assay type: cell-based, Staphylococcus aureus; settings: spotted from MIC plates on Mueller-Hinton agar, overnight, no colonies
Procedure: MBC was determined directly after the MIC evaluation.

[16] = system: S. aureus DSM 1104 SCV biofilms; assay: Regrowth from pregrown biofilms on hydroxyapatite discs; assay type: cell-based, Staphylococcus aureus; settings: 30 h on hydroxyapatite discs, 400 µg/ml, 18 h, regrowth 24 h in Todd-Hewitt broth
Procedure: To characterize the viability of the biofilm cells, HAD with pregrown biofilms were exposed for 18 hours to supra-MBIC90 concentrations of the AMP, and - after washing - were placed into fresh TH broth. This procedure serves to determine possible planktonic regrowth from the cells that survived the treatment.
Biofilms were grown on standardized hydroxyapatite discs (3D Biotek). The discs were placed in 24-well microtiter plates and inoculated with a cell suspension from the overnight stationary culture, grown in Todd-Hewitt broth and diluted to OD550 = 0.2. After 30 hours of growth at 37 °C without agitation, the discs were placed for 18 hours in solutions containing 400 µg/ml of peptides, dissolved in 10% dimethyl sulfoxide and 150 mM sodium phosphate buffer (pH 7.2). For the control experiments and conventional antibiotics, pure sodium phosphate buffer was used. After the treatment, discs were washed with sodium phosphate buffer, placed into 1 ml of Todd-Hewitt broth and incubated at 37 °C with agitation at 200 rpm for 24 hours.

Compound	MBC (E. faecalis WW6 [1])	MBC (S. aureus MRSA3)	chromatographic logD (physchem; pH 2.6)	chromatographic logD (physchem; pH 7.4)	chromatographic logD (physchem; pH 10.5)	MIC (S. aureus MRSA9 SCV)	MIC (S. aureus MRSA8 SCV [2])	MBC (E. faecalis WW4)	MBIC90 (S. aureus DSM 1104 SCV [4])	MBC (S. aureus DSM 1104 [5])	MIC (S. aureus DSM 1104 SCV [6])	MBIC90 (S. aureus DSM 1104 [7])	MBIC90 (E. faecalis WW6 [8])	MBIC90 (E. faecalis TRE2 [9])	MBIC90 (S. aureus MRSA8 SCV [10])	MBIC90 (E. faecalis DSM 2570 [11])	MBC (E. faecalis TRE4)	MBC (E. faecium VRE1)	MBC (E. faecium VRE2)	MBC (S. aureus MRSA4)	other results
CC(C)C[C@@H]1NC(=O)[C@H](CCCN)NC(=O)[C@H](C(C)C)NC(=O)[C@@H]2CCCN2C(=O)[C@@H](Cc2ccccc2)NC(=O)[C@H](CC(C)C)NC(=O)[C@H](CCCN)NC(=O)[C@H](C(C)C)NC(=O)[C@@H]2CCCN2C(=O)[C@@H](Cc2ccccc2)NC1=O [GS, gramicidin S] (cyclo(V[Orn]L[dF]PV[Orn]L[dF]P))	16 (14) µg/ml	16 (14) µg/ml	1.5	3.51	7.52	4 (4) µg/ml	4 (4) µg/ml	16 (14) µg/ml	14 µM	8 (7) µg/ml	4 (4) µg/ml	4 µM	14 µM	14 µM	4 µM	7 µM	8 (7) µg/ml	8 (7) µg/ml	8 (7) µg/ml	16 (14) µg/ml	MIC (S. aureus MRSA538 SCV): 8 (7) µg/ml; Bound AGP ([3]; Chiralpak-AGP column, 50 mM ammonium acetate pH 7.4, 0–35% 2-propanol gradient, calibrated retention times, UV): 92.92%; log k AGP ([3]; Chiralpak-AGP column, pH 7.4, 0–35% 2-propanol gradient, value in parentheses): 1.06; MIC against enterococci (enterococci): approximately 8 µg/ml; Haemolysis at 5 μM (human erythrocytes): 7%; Haemolysis at 10 μM (human erythrocytes): 54%; 1h LD50 (Danio rerio embryos): 8 µg/mL; 3h LD50 (Danio rerio embryos): 5 µg/mL; MBC (S. aureus MRSA9): 16 (14) µg/ml; MBC (E. faecalis TRE1): 16 (14) µg/ml; MBC (E. faecalis DSM 2570 [12]): 8 (7) µg/ml; Degradation by protease (subtilisin): effective in degrading; Bound HSA ([13]; Chiralpak-HSA column, 50 mM ammonium acetate pH 7.4, 0–35% 2-propanol gradient, calibrated retention times, UV): 97.45%; log k HSA ([13]; Chiralpak-HSA column, pH 7.4, 0–35% 2-propanol gradient, value in parentheses): 1.44; MBC (E. faecalis TRE2 [14]): 16 (14) µg/ml; MBC (S. aureus DSM 1104 SCV [15]): 8 (7) µg/ml
Cc1onc(-c2ccccc2)c1C(=O)N[C@@H]1C(=O)N2[C@@H]1SC(C)(C)[C@@H]2C(=O)O [OXA, oxacillin]	–	–	–	–	–	–	–	–	–	–	–	–	–	–	–	–	–	–	–	–	Concentration effective against the planktonic cells (SI Table S1) (S. aureus DSM 1104 SCV [6]; DSM 1104 SCV planktonic cells, standard broth microdilution): 0.25 µg/mL; Biofilm regrowth after treatment [16]: tolerant
FVQWFSKFLGRIL-NH2 [TL, temporin L]	32 (20) µg/ml	32 (20) µg/ml	0.65	2.92	4.95	8 (5) µg/ml	8 (5) µg/ml	32 (20) µg/ml	20 µM	16 (10) µg/ml	8 (5) µg/ml	5 µM	78 µM	78 µM	5 µM	39 µM	32 (20) µg/ml	16 (10) µg/ml	16 (10) µg/ml	32 (20) µg/ml	log k AGP ([3]; pH 7.4): 1.23; Haemolysis at 5 μM (human erythrocytes): 57%; Haemolysis at 10 μM (human erythrocytes): 99%; 1h LD50 (Danio rerio embryos): 7 µg/mL; 3h LD50 (Danio rerio embryos): 7 µg/mL; MBC (S. aureus MRSA9): 32 (20) µg/ml; MBC (E. faecalis TRE1): 32 (20) µg/ml; MBC (E. faecalis DSM 2570 [12]): 16 (10) µg/ml; log k HSA ([13]; pH 7.4): 1.68; MBC (E. faecalis TRE2 [14]): 32 (20) µg/ml

Reference: publication PMC6884456, “Supreme activity of gramicidin S against resistant, persistent and biofilm cells of staphylococci and enterococci” (Scientific Reports, 2019)
